Drawing on patent US10125123B2, “Small molecule IRE1-α inhibitors” (Cornell University, priority 2016, dated 2018), this text covers EC50 for 24 compounds.

In general, EC50 refers to the concentration at which the effect is half-maximal.

The target of the test is T1, IRE1α (Homo sapiens, UniProt O75460).
T1 construct: purchased SignalChem
T1 sequence (O75460 19-977): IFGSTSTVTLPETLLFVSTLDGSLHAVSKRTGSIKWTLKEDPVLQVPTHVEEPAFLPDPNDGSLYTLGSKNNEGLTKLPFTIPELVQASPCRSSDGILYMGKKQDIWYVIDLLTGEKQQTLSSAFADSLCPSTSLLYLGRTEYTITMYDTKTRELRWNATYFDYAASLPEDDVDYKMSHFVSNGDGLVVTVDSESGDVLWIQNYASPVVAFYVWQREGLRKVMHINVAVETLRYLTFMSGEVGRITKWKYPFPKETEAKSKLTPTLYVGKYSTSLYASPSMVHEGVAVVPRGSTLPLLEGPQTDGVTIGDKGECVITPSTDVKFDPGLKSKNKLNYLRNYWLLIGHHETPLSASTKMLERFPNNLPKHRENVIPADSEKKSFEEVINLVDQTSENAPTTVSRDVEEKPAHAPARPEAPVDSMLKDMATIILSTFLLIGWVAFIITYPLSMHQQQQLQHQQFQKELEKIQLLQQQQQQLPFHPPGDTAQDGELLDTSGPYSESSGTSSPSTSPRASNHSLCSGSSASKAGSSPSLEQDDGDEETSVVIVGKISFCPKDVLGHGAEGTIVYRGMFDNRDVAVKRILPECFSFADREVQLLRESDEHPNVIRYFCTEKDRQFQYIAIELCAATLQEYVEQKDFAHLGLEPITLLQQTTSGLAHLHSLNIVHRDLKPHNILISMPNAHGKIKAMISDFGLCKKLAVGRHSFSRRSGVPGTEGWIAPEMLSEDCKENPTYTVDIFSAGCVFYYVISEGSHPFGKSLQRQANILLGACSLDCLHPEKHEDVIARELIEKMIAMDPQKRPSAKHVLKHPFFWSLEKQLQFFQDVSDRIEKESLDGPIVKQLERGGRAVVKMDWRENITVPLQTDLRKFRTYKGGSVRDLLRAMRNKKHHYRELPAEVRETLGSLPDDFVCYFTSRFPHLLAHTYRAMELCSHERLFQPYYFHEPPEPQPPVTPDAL
Put plainly: In vitro FRET assay (XBP1 RNA probe cleavage by IRE1α). To be noted: biochemical FRET assay, 2 nM IRE1α. How it is done: In vitro FRET assay was performed to evaluate the ability of select compounds to inhibit IRE1, the results of which are summarized in the following table.
To perform the in vitro FRET assay, 1× complete assay buffer (CAB; […], 50 mM sodium citrate pH 7.15, 1 mM magnesium acetate, 0.02% Tween 20) was used to dilute SignalChem IRE1α in protein to a final concentration of 2 nM. Selected compounds were serially diluted with DMSO in a non-binding black 384-well plate for a total of 15 μl in each well. 2 μl of the serially diluted compound or DMSO control were then added to new wells containing 98 μl of 1×CAB, for a total volume of 100 μl, 10 μl of which were then transferred to wells of a new plate. 5 μl of the diluted IRE1α was then added to each well. 5 μl of a […] XBP1 RNA probe was then added to each well. Fluorescence was then read over 30 minutes in kinetic mode (485/515 nm). Two RNA probes were used, XBP1 wildtype (CAUGUCCGCAGCACAUG; SEQ ID NO: 1) which is able to be spliced by active IRE1α or XBP1 mutant (CAUGUCCCCAGCACAUG; SEQ ID NO: 2) which is unable to be spliced. Each probe contained a 5′ 6-FAM modification and a 3′ IOWA Black FQ modification. […]
For `CN1CCN(Cc2ccc(NC(=O)Nc3cc(-c4ccc5oncc5c4)n(C)n3)cc2C(F)(F)F)CC1` [Compound 3, 1-(5-(benzo[d]isoxazol-5-yl)-1-methyl-1H-pyrazol-3-yl)-3-(4-((4-methylpiperazin-1-yl)methyl)-3-(trifluoromethyl)phenyl)urea], the EC50 is over 100 µM. In turn, `COc1ccccc1NC(=O)Nc1cc(-c2ccc3ccncc3c2)n(C)n1` [Compound 65, 1-(5-(isoquinolin-7-yl)-1-methyl-1H-pyrazol-3-yl)-3-(2-methoxyphenyl)urea] displayed an EC50 of over 100 µM. `CN1CCN(Cc2ccc(CC(=O)Nc3cc(-c4ccc5cc(N)ncc5c4)n(C)n3)cc2C(F)(F)F)CC1` [Compound 51, N-(5-(3-aminoisoquinolin-7-yl)-1-methyl-1H-pyrazol-3-yl)-2-(4-((4-methylpiperazin-1-yl)methyl)-3-(trifluoromethyl)phenyl)acetamide] displayed an EC50 of 5 to 50 µM. With `CN1CCN(Cc2ccc(NC(=O)Nc3cc(-c4cccnc4)[nH]n3)cc2C(F)(F)F)CC1` [Compound 7, 1-(4-((4-methylpiperazin-1-yl)methyl)-3-(trifluoromethyl)phenyl)-3-(5-(pyridin-3-yl)-1H-pyrazol-3-yl)urea] the figure was 5 to 50 µM. Consider `CN1CCN(CCc2cccc(NC(=O)Nc3cc(-c4ccc5ccncc5c4)n(C)n3)c2)CC1` [Compound 19, 1-(5-(isoquinolin-7-yl)-1-methyl-1H-pyrazol-3-yl)-3-(3-(2-(4-methylpiperazin-1-yl)ethyl)phenyl)urea], for which the EC50 was over 100 µM. `CN1CCN(Cc2ccc(Nc3c(Nc4cc(-c5ccc6ccncc6c5)n(C)n4)c(=O)c3=O)cc2)CC1` [Compound 74, 3-((5-(isoquinolin-7-yl)-1-methyl-1H-pyrazol-3-yl)amino)-4-((4-((4-methylpiperazin-1-yl)methyl)phenyl)amino)cyclo-but-3-ene-1,2-dione] had a concentration giving a half-maximal response (EC50) of at most 5 µM. With `CN1CCN(Cc2ccc(NC(=O)Nc3cc(-c4ccc5cc(N)ncc5c4)n(C)n3)cc2C(F)(F)F)CC1` [Compound 26, 1-(5-(3-aminoisoquinolin-7-yl)-1-methyl-1H-pyrazol-3-yl)-3-(4-((4-methylpiperazin-1-yl)methyl)-3-(trifluoromethyl)phenyl)urea] the figure was at most 5 µM; with `CN1CCN(Cc2ccc(NC(=O)Nc3cc(-c4ccn5ccnc5c4)n(C)n3)cc2C(F)(F)F)CC1` [Compound 4, 1-(5-(imidazo[1,2-a]pyridin-7-yl)-1-methyl-1H-pyrazol-3-yl)-3-(4-((4-methylpiperazin-1-yl)methyl)-3-(trifluoromethyl)phenyl)urea], over 100 µM; with `Cn1nc(NC(=O)NCc2ccccc2)cc1-c1ccc2ccncc2c1` [Compound 63, 1-benzyl-3-(5-(isoquinolin-7-yl)-1-methyl-1H-pyrazol-3-yl)urea], over 100 µM.

The compound `Cc1nc(NC(=O)Nc2ccc(CN3CCN(C)CC3)c(C(F)(F)F)c2)[nH]c1-c1ccc2ccncc2c1` [Compound 46, 1-(5-(isoquinolin-7-yl)-4-methyl-4H-imidazol-2-yl)-3-(4-((4-methylpiperazin-1-yl)methyl)-3-(trifluoromethyl)phenyl)urea] gave a concentration for a half-maximal effect (EC50) of at most 5 µM. Take `O=C(Nc1ccc2oc(-c3cccnc3)nc2c1)[C@H]1C[C@H]1c1ccccc1` [Compound 59, (1S,2R)-2-phenyl-N-(2-(pyridin-3-yl)benzo[d]oxazol-5-yl)cyclopropane-1-carboxamide]: the concentration for a half-maximal effect (EC50) lay in the range of 5 to 50 µM. Take `CN1CCC(Cc2ccc(NC(=O)Cc3cc(-c4ccc5nc(N)ncc5c4)n(C)n3)cc2C(F)(F)F)CC1` [Compound 49, 2-(5-(2-aminoquinazolin-6-yl)-1-methyl-1H-pyrazol-3-yl)-N-(4-((1-methylpiperidin-4-yl)methyl)-3-(trifluoromethyl)phenyl)acetamide]: the EC50 is over 100 µM. Take `CN1CCN(Cc2ccc(NC(=O)Nc3ccc4oc(-c5cnn6ccccc56)nc4c3)cc2C(F)(F)F)CC1` [Compound 16, 1-(4-((4-methylpiperazin-1-yl)methyl)-3-(trifluoromethyl)phenyl)-3-(2-(pyrazolo[1,5-a]pyridin-3-yl)benzo[d]oxazol-5-yl)urea]: the 50% effective concentration (EC50) was at most 5 µM. As for `Cn1nc(NS(=O)(=O)c2ccccc2)cc1-c1ccc2cc(N)ncc2c1` [Compound 66, N-(5-(3-aminoisoquinolin-7-yl)-1-methyl-1H-pyrazol-3-yl)benzenesulfonamide], the EC50 was over 100 µM.

Compound `Cn1nc(NC(=O)Nc2ccccc2)cc1-c1ccc2ccncc2c1` [Compound 64, 1-(5-(isoquinolin-7-yl)-1-methyl-1H-pyrazol-3-yl)-3-phenylurea] had a half-maximal effective concentration (EC50) of over 100 µM.

The compound `CN1CCC(Cc2ccc(NC(=O)Nc3cc(-c4ccc5cc(N)ncc5c4)n(C)n3)cc2C(F)(F)F)CC1` [Compound 48, 1-(5-(3-aminoisoquinolin-7-yl)-1-methyl-1H-pyrazol-3-yl)-3-(4-((1-methylpiperidin-4-yl)methyl)-3-(trifluoromethyl)phenyl)urea] showed a concentration giving a half-maximal response (EC50) of 5 to 50 µM.

As to `Cn1nc(NC(=O)Nc2ccc(CN3CCC(c4ccccc4)CC3)c(C(F)(F)F)c2)cc1-c1ccc2ccncc2c1` [Compound 40, 1-(5-(isoquinolin-7-yl)-1-methyl-1H-pyrazol-3-yl)-3-(4-((4-phenylpiperidin-1-yl)methyl)-3-(trifluoromethyl)phenyl)urea], the EC50 was over 100 µM. With `CN1CCN(Cc2ccc(NC(=O)Nc3cc(-c4ccc5nc(C(F)F)[nH]c(=O)c5c4)n(C)n3)cc2C(F)(F)F)CC1` [Compound 8, 1-(5-(2-(difluoromethyl)-4-oxo-3,4-dihydroquinazolin-6-yl)-1-methyl-1H-pyrazol-3-yl)-3-(4-((4-methylpiperazin-1-yl)methyl)-3-(trifluoromethyl)phenyl)urea], the EC50 is at most 5 µM. `CN1CCN(Cc2ccc(Nc3c(Nc4cc(-c5ccc6nc(N)ncc6c5)n(C)n4)c(=O)c3=O)cc2C(F)(F)F)CC1` [Compound 75, 3-((5-(2-aminoquinazolin-6-yl)-1-methyl-1H-pyrazol-3-yl)amino)-4-((4-((4-methylpiperazin-1-yl)methyl)-3-(trifluoromethyl)phenyl)amino) cyclobut-3-ene-1,2-dione] gave an EC50 of at most 5 µM.

`CN1CCN(Cc2ccc(C(=O)Nc3cc(-c4ccc5cc(N)ncc5c4)n(C)n3)c3ccccc23)CC1` [Compound 61, N-(5-(3-aminoisoquinolin-7-yl)-1-methyl-1H-pyrazol-3-yl)-4-((4-methylpiperazin-1-yl)methyl)-1-naphthamide] yielded an EC50 of over 100 µM. In the case of `CN1CCN(Cc2ccc(NC(=O)Nc3cc(-c4cccn5ccnc45)n(C)n3)cc2C(F)(F)F)CC1` [Compound 5], the half-maximal effective concentration (EC50) is over 100 µM. With `O=C(/C=C\c1ccccc1)Nc1ccc2oc(-c3cccnc3)nc2c1` [Compound 60, (Z)-3-phenyl-N-(2-(pyridin-3-yl)benzo[d]oxazol-5-yl)acrylamide], the EC50 fell in the range of 5 to 50 µM. Turning to `O=C(Nc1ccc(CN2CCNCC2)c(C(F)(F)F)c1)Nc1ccc2oc(-c3cccnc3)nc2c1` [Compound 13, 1-(4-(piperazin-1-ylmethyl)-3-(trifluoromethyl)phenyl)-3-(2-(pyridin-3-yl)benzo[d]oxazol-5-yl)urea], the concentration giving a half-maximal response (EC50) was over 100 µM. For `CN1CCN(Cc2ccc(NC(=O)Nc3cc(-c4ccc5cnoc5c4)n(C)n3)cc2C(F)(F)F)CC1` [Compound 2, 1-(5-(benzo[d]isoxazol-6-yl)-1-methyl-1H-pyrazol-3-yl)-3-(4-((4-methylpiperazin-1-yl)methyl)-3-(trifluoromethyl)phenyl)urea], the EC50 was 5 to 50 µM.
